Reference: publication PMC8710297, “Identification of potent SENP1 inhibitors that inactivate SENP1/JAK2/STAT signaling pathway and overcome platinum drug resistance in ovarian cancer” (Clinical and Translational Medicine, 2021)
pIC50: −log10 of the molar value.

Assays:
SENP1 [1] = molecular target: T1, SENP1 (Homo sapiens, UniProt Q9P0U3); experiment: In vitro deSUMOylation assay (SUMOylated His-JAK2 + recombinant GST-SENP1); type: biochemical; conditions: read-out: SENP1 inhibition in vitro IC50
T1 sequence (Q9P0U3 1-644): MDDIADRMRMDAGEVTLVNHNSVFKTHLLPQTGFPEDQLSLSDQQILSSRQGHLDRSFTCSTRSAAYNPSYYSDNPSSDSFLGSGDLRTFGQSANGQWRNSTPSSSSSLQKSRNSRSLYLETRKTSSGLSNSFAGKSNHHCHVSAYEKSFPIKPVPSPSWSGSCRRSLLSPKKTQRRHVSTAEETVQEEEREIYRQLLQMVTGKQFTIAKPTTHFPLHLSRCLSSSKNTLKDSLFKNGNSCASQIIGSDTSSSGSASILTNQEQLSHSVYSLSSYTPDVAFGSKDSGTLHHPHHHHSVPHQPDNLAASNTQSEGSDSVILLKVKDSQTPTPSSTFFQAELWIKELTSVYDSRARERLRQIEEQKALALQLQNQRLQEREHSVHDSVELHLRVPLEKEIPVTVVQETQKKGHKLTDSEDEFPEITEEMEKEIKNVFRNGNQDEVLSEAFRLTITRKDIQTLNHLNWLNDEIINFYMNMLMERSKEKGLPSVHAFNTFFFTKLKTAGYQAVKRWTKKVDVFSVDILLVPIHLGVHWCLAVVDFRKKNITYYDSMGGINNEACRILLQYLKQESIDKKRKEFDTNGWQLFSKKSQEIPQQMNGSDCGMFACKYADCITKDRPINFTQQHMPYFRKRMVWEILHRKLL
Protocol: (A) Collection of Momordin Ic (Mc) natural compound analogues. […] Cell proliferation was determined by the sulforhodamine B (SRB) assay. […] IGROV1 CR cells were incubated with Mc at indicated concentrations for 48 h and then harvested for Western blot for indicated proteins. […] IGROV1 CR cells were incubated with UA and then treated as in C. […] Intensity of SUMOylated JAK2 was measured by Quantity One software. […] Recombinant His‐JAK2 was SUMOylated by in vitro SUMOylation assay, and then SUMOylated JAK2 proteins were incubated with or without recombinant GST‐SENP1 together with Mc for 3 h. […] In vitro assay was performed as in (F). […]

SENP1 [2] = molecular target: T1, SENP1; experiment: SENP1 activity in cells (SUMOylated JAK2, Western blot quantification); type: cell-based; design: endogenous in cells; host or cells: IGROV1 CR cells; conditions: IGROV1 CR cells, 48 h
Protocol: (A) Collection of Momordin Ic (Mc) natural compound analogues. […] Cell proliferation was determined by the sulforhodamine B (SRB) assay. […] IGROV1 CR cells were incubated with Mc at indicated concentrations for 48 h and then harvested for Western blot for indicated proteins. […] IGROV1 CR cells were incubated with UA and then treated as in C. […] Intensity of SUMOylated JAK2 was measured by Quantity One software. […] Recombinant His‐JAK2 was SUMOylated by in vitro SUMOylation assay, and then SUMOylated JAK2 proteins were incubated with or without recombinant GST‐SENP1 together with Mc for 3 h. […] In vitro assay was performed as in (F).
(A) Synthesis of UA derivatives. Reagents and conditions: (i) Ac2O, DMAP, Pyridine, r.t.; (ii) Oxalyl chloride, CH2Cl2, r.t., overnight; (iii) amines, TEA, r.t., 0.5–4 h; (iv) NaOH a.q., MeOH/THF, r.t.; (v) amines, MeOH, reflux; (vi) K2CO3, DMF, 60°C. The detail of synthesis was included in supplemental materials. […] (C) IGROV1 CR cells treated with indicated UAMMC9 for 48 h. Cells were then harvested and lysates were resolved on sodium dodecyl sulphate‐polyacrylamide gel electrophoresis, followed by immunoblotting for indicated proteins. (D) Cellular thermal shift assay to examine the interaction of UAMMC9 with SENP1. IGROV1 CR cells were incubated with DMSO or UAMMC9 for 4 h before treatment as in Figure 2A. (E) In vitro thermal shift assay to analyze the interactions of UAMMC9 with purified GST‐SENP1(C603A). Stability of SENP1(C603A) was analyzed by using Western blot against SENP1 antibody. […] Surface of hydrophobic amino acid residues in catalytic cleft was shown in yellow and that of hydrophilic amino acid residues was shown in magenta. Key amino acid residues were highlighted. […] The pictures were generated by Chimera.

[3] = recombinant GST-SENP1, SUMOylated His-JAK2, 3 h
[4] = intensity of SUMOylated JAK2, read-out: SENP1 inhibition in cells IC50

pIC50 (SENP1 [1]; [3]) | pIC50 (SENP1 [2]; [4]) | pIC50 (SENP1 [1]; recombinant SENP1, SUMOylated JAK2) | pIC50 (SENP1 [2]; SUMOylated JAK2, read-out: SENP1 activity in cells IC50) | Structure (SMILES)
4.70 | 4.50 | – | – | CC1(C)CC[C@]2(C(=O)O)CC[C@]3(C)C(=CC[C@@H]4[C@@]5(C)CC[C@H](O[C@@H]6O[C@H](C(=O)O)[C@@H](O)[C@H](O[C@@H]7OC[C@@H](O)[C@H](O)[C@H]7O)[C@H]6O)C(C)(C)[C@@H]5CC[C@]43C)[C@@H]2C1 [Mc, Momordin Ιc]
8.19 | 6.62 | – | – | C[C@H]1[C@H](C)CC[C@]2(C(=O)O)CC[C@]3(C)C(=CC[C@@H]4[C@@]5(C)CC[C@H](O)C(C)(C)[C@@H]5CC[C@]43C)[C@H]12 [UA, ursolic acid, reference compound]
– | – | 6.71 | 6.82 | C[C@H]1[C@H](C)CC[C@]2(C(=O)NCC(=O)N(C)CCO)CC[C@]3(C)C(=CC[C@@H]4[C@@]5(C)CC[C@H](O)C(C)(C)[C@@H]5CC[C@]43C)[C@H]12 [UAMMC9]
